Experimental findings from ChEMBL document CHEMBL1121435, “Prostaglandin analogues possessing antinidatory effects. 2. Modification of the alpha chain” (1980) are described below.

Common to all, as to assay type: functional
Assay [1] concerns Rattus norvegicus. Put plainly: Antinidatory effect was measured in the rat, relative to that of prostaglandin F2-alpha (ED50 = 1.3 (0.9-1.87)mg/kg).
For assay [2], the system named is Rattus norvegicus. The experiment in a line: Antinidatory effect was measured in the rat, relative to that of prostaglandin F2-alpha (ED50 = 1.3 (0.9-1.87) mg/kg); Range 4-8.
The subject of assay [3] is Rattus norvegicus. The experiment in a line: Antinidatory effect was measured in the rat, relative to that of prostaglandin F2alpha (ED50 = 1.3 (0.9-1.87) mg/kg); Range 200-400.
The subject of assay [4] is Rattus norvegicus. Put plainly: Antinidatory effect was measured in the rat, relative to that of prostaglandin F2-alpha (ED50 = 1.3 (0.9-1.87) mg/kg); Range 2-4.

Molecules are shown by their SMILES.

For the compound `COC(=O)/C=C/C/C=C\C[C@@H]1[C@@H](/C=C/[C@@H](O)COc2cccc(C(F)(F)F)c2)[C@H](O)C[C@@H]1O`, the Relative activity in assay [1] was determined as 100.
`COC(=O)/C=C/C=C/CC[C@@H]1C(/C=C/[C@@H](O)COc2cccc(Cl)c2)[C@H](O)C[C@@H]1O` (some centres not stated) had a Relative activity in assay [2] of 4.
As for `COC(=O)C/C=C/C=C\C[C@@H]1[C@@H](/C=C/[C@@H](O)COc2cccc(Cl)c2)[C@H](O)C[C@@H]1O`, in assay [1], the Relative activity was determined as 800.
`COC(=O)C/C=C/C=C/C[C@@H]1[C@@H](/C=C/[C@@H](O)COc2ccccc2)[C@H](O)C[C@@H]1O` showed a Relative activity in assay [1] of 200.
In the case of `COC(=O)/C=C/C/C=C\C[C@@H]1[C@@H](/C=C/[C@@H](O)COc2ccccc2)[C@H](O)C[C@@H]1O`, the Relative activity in assay [3] was determined as 200.
The compound `COC(=O)/C=C/C=C/CC[C@@H]1C(/C=C/[C@@H](O)COc2ccccc2)[C@H](O)C[C@@H]1O` (some centres not stated) had a Relative activity in assay [1] of 20.
On the same count and under the same terms, as for `COC(=O)/C=C/C/C=C/C[C@@H]1[C@@H](/C=C/[C@@H](O)COc2cccc(Cl)c2)[C@H](O)C[C@@H]1O`, the figure is 100.
Take `COC(=O)C/C=C/C=C\C[C@@H]1[C@@H](/C=C/[C@@H](O)COc2ccc(Cl)cc2)[C@H](O)C[C@@H]1O`: the Relative activity in assay [3] was determined as 200.
As for `O=C(O)/C=C/C/C=C\C[C@@H]1[C@@H](/C=C/[C@@H](O)COc2cccc(Cl)c2)[C@H](O)C[C@@H]1O`, the Relative activity in assay [1] was determined as 200.
On the same count and under the same terms, as for `COC(=O)CC=C/C=C\C[C@@H]1[C@@H](/C=C/[C@@H](O)COc2ccccc2)[C@H](O)C[C@@H]1O`, the figure is 1200; as for `COC(=O)CC=C/C=C\C[C@@H]1[C@@H](/C=C/[C@@H](O)COc2cccc(Cl)c2)[C@H](O)C[C@@H]1O`, 600; as for `COC(=O)C/C=C/CCC[C@@H]1[C@@H](/C=C/[C@@H](O)COc2ccccc2)[C@H](O)C[C@@H]1O`, 40.
On the same count and under the same terms, for `O=C(O)/C=C/CCCC[C@@H]1[C@@H](/C=C/[C@@H](O)COc2cccc(C(F)(F)F)c2)[C@H](O)C[C@@H]1O` the value was 4; for `COC(=O)C/C=C/C=C/C[C@@H]1[C@@H](/C=C/[C@@H](O)COc2cccc(Cl)c2)[C@H](O)C[C@@H]1O`, 100.
In assay [3], `COC(=O)CCC/C=C\C[C@@H]1[C@@H](/C=C/[C@@H](O)COc2ccccc2)[C@H](O)C[C@@H]1O` had a Relative activity of 200.
In assay [1], `COC(=O)C/C=C/C=C\C[C@@H]1[C@@H](/C=C/[C@@H](O)COc2cccc(C(F)(F)F)c2)[C@H](O)C[C@@H]1O` had a Relative activity of 100.
Same read-out and setting: as for `COC(=O)C(CC/C=C\C[C@@H]1[C@@H](/C=C/[C@@H](O)COc2cccc(Cl)c2)[C@H](OC2CCCCO2)C[C@@H]1OC1CCCCO1)[Se]c1ccccc1` (some centres not stated), the figure is 1; as for `COC(=O)CCC/C=C\C[C@@H]1[C@@H](/C=C/[C@@H](O)COc2cccc(C(F)(F)F)c2)[C@H](O)C[C@@H]1O`, 100.
`O=C(O)/C=C\CCCC[C@@H]1[C@@H](/C=C/[C@@H](O)COc2cccc(C(F)(F)F)c2)[C@H](O)C[C@@H]1O`: the Relative activity in assay [4] is listed as 2.
In assay [1], `COC(=O)C/C=C/C=C\C[C@@H]1[C@@H](/C=C/[C@@H](O)COc2ccccc2)[C@H](O)C[C@@H]1O` had a Relative activity of 800.
Compound `COC(=O)CCC/C=C\C[C@@H]1[C@@H](/C=C/[C@@H](O)COc2cccc(Cl)c2)[C@H](O)C[C@@H]1O` showed a Relative activity in assay [1] of 200.
The same measure, in the same setting: for `COC(=O)/C=C/C/C=C\C[C@@H]1[C@@H](/C=C/[C@@H](O)COc2ccc(Cl)cc2)[C@H](O)C[C@@H]1O` the value was 100.
